Reference: patent US20250275959A1, “COMPOUNDS AND METHODS OF THEIR USE” (LEXICON PHARMACEUTICALS, INC., priority 2024, published 2025)

Legend:
hACSL5 [1] = biological target: T1, hACSL5 (Homo sapiens (Human), UniProt Q9ULC5); assay: Human ACSL5 coupled enzyme Amplex Red assay; type: biochemical; conditions: read-out: hACSL5 IC50
Procedure: Human ACSL5 (33-683) was cloned with a C-terminal 6 His tag and expressed in insect cells (sf9) as per standard insect cell expression protocols. Human ACSL5 was enriched by affinity nickel affinity chromatography followed by Superdex S200 gel filtration column equilibrated in 20 mM HEPES pH 7.8, 500 mM NaCl, 1 mM TCEP, 5% glycerol, 0.1% Triton X^100.
Inhibition of ACSL5 enzyme activity was monitored with a coupled enzyme Amplex Red assay.
The assay is carried out in 384-well microtiterplates. In a total volume of […], compounds are preincubated with 20 nM ACSL5, in a buffer containing 150 mM MOPS-NaOH, 12 mM MgCl2, 0.03% (v/v) Triton X-100, 2.79 U mL-1 Peroxidase and 24 U mL-1 Acyl-CoA Oxidase (pH 7.6). The reaction is started by the addition of substrate and co factors (25 μM oleate, 30 μM CoA, 1 mM ATP and 50 μM Amplex Red) and the fluorescence detected after 10 minutes at 25° C. with a fluorescence reader (BMG-Fluostar; BMG-Technologies) using an excitation wavelength of 535 nm and an emission wavelength of 590 nm.
(§1) Concentration-response titration points for each compound tested were filled to the Hill equation yielding concentrations of half maximal inhibition […] and maximal inhibition values.
Target sequence in this assay (Q9ULC5 33-683): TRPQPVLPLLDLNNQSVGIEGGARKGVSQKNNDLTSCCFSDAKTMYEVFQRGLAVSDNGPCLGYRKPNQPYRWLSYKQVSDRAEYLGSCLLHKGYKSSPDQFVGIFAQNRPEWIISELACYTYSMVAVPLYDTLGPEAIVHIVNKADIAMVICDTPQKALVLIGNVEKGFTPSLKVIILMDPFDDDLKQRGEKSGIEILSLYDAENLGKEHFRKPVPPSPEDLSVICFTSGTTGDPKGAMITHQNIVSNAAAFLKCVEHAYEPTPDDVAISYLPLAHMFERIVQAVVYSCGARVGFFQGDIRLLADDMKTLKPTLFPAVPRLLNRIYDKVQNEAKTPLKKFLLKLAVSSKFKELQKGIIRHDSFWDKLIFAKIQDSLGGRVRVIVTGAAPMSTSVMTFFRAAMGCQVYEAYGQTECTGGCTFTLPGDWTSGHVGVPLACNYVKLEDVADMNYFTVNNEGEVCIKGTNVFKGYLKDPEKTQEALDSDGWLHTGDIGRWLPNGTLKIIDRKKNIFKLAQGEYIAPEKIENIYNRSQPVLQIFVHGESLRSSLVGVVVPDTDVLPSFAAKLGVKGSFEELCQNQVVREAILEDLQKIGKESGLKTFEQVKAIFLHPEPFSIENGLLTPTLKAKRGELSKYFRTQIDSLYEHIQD

hACSL5 [2] = biological target: T1, hACSL5; assay: Cell-based assay (CBA) with B12FA in hACSL5-transfected Expi293F / FlpIn TRex293 cells; conditions: hACSL5-expressing cells
Source text: To assess the cell penetration and cellular activity of the compounds, a cell-based assay (CBA) was used to detect compound potency in living cells. The assay utilized the fluorescent fatty acid analogue B12FA, a boron-dipyrromethene (BODIPY™) labelled C12 fatty acid that can be incorporated into glycerophosphocholine in the cytoplasmic oil droplets of live cells. A concentration-dependent, red-shifted fluorescence can be induced by the formation of BODIPY™ excimers in the oil droplets.
Expi293F cells transfected with full length hACSL5 plasmid were selected using 1 mg/mL G418 culture medium and clones were selected by in vitro whole cell lysate (WCL) assay. The cell passage number used in the Expi293 CBA assay could not be used beyond 10 passages due to a decrease in hACSL5 expression. Therefore, a CBA using FlpIn TRex293 cells for inducible expression of hACSL5 was also established.
FlpIn TRex293 cells transfected with hACSL5 plasmid were selected in culture medium containing 15 µg/ml Blasticidin and 150 µg/ml Hygromycin. For cell-based assays, stable transfected hACSL5 cells were seeded onto a 96-well plate at 30-50k/well and incubated overnight. For the inducible system, […] tetracycline (or doxycycline) was added to culture medium of FlpIn TRex293 hACSL5 cells on the day before the assay to induce expression of hACSL5. The next day, growth media was replaced with culture medium without FBS and glucose (DMEM glucose (-), ThermoFisher) and cells were incubated for an hour before treating cells with serial diluted compounds containing 20 µM B12FA (ThermoFisher) for another 3 hours in the above medium. Cells were then fixed in 4% formaldehyde for 10 minutes and washed twice with PBS. The plate was read using the Cytation 5 imaging system with an excitation wavelength of 485 nm and observed emissions at 630 nm and 520 nm. The percentage of inhibition was calculated as: […]
wherein A is the ratio of emission intensities at 630 nm/520 nm in the absence of inhibitor (maximum ratio); B is the ratio of the intensities at those wavelengths in the presence of […] of the test compound or non-induced cells (minimum ratio); and X is the ratio of the intensities at a given compound concentration.
as §1
Target sequence in this assay (Q9ULC5 whole entry): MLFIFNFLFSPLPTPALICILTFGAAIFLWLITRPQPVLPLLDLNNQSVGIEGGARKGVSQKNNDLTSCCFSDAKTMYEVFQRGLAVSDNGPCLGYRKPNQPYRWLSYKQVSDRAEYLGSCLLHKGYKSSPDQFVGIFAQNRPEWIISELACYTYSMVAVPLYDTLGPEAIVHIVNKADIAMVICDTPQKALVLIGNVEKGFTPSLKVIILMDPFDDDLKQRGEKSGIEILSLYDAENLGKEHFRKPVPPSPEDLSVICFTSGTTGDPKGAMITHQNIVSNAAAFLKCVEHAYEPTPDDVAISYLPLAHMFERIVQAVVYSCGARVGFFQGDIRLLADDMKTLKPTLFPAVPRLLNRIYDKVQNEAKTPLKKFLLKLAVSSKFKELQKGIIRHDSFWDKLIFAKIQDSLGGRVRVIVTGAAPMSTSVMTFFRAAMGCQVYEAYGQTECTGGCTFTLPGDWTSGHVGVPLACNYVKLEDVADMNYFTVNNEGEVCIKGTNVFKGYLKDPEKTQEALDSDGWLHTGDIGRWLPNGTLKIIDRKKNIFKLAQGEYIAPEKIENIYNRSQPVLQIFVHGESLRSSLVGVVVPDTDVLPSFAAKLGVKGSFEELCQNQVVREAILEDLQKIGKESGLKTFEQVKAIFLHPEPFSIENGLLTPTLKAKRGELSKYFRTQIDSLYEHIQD

Structure (SMILES)	IC50 (hACSL5 [1]) [µM]	IC50 (hACSL5 [2]) [µM]
CC[C@@H](Oc1ccc(C(=O)NS(=O)(=O)N2CCC(OC3CCN(C)CC3)CC2)c(F)c1F)c1ccc(OC2CC(OC)C2)cn1 (stereo partly drawn) [2,3-difluoro-4-((R)-1-(5-((1R,3R)-3-methoxycyclobutoxy)pyridin-2-yl)propoxy)-N-((4-((1-methylpiperidin-4-yl)oxy)piperidin-1-yl)sulfonyl)benzamide]	< 0.1	0.1 to 0.5
CC[C@@H](Oc1ccc(C(=O)NS(=O)(=O)N2CCN(C)CC2)c(F)c1F)c1ccc(OC2CC(OC)C2)cn1 (stereo partly drawn) [2,3-difluoro-4-((R)-1-(5-((1R,3R)-3-methoxycyclobutoxy)pyridin-2-yl)propoxy)-N-((4-methylpiperazin-1-yl)sulfonyl)benzamide]	0.1 to 0.5	0.1 to 0.5
CC[C@@H](Oc1ccc(C(=O)NS(=O)(=O)c2ccc(OC3CCCN(C)C3)cc2)c(F)c1F)c1ccc(Oc2ccccn2)cn1 (stereo partly drawn) [2,3-difluoro-N-((4-((1-methylpiperidin-3-yl)oxy)phenyl)sulfonyl)-4-((R)-1-(5-(pyridin-2-yloxy)pyridin-2-yl)propoxy)benzamide]	< 0.1	< 0.1
CC(Oc1ccc(C(=O)NS(=O)(=O)c2cnn(CCN(C)C)c2)c(F)c1F)c1cccc(OCC2CC2)c1 (stereo not shown) [4-(1-(3-(cyclopropylmethoxy)phenyl)ethoxy)-N-((1-(2-(dimethylamino)ethyl)-1H-pyrazol-4-yl)sulfonyl)-2,3-difluorobenzamide]	0.1 to 0.5	> 0.5
CC[C@@H](Oc1ccc(C(=O)NS(=O)(=O)N2CCN(C)CC2)c(F)c1F)c1ccc(OC2CC(OC(F)F)C2)cn1 (stereo partly drawn) [4-((R)-1-(5-((1R,3R)-3-(difluoromethoxy)cyclobutoxy)pyridin-2-yl)propoxy)-2,3-difluoro-N-((4-methylpiperazin-1-yl)sulfonyl)benzamide]	0.1 to 0.5	0.1 to 0.5
CC[C@@H](Oc1ccc(C(=O)NS(=O)(=O)N2CCC(OC3CCN(C)CC3)CC2)cc1C(F)(F)F)c1ccc(OC2CC(OC)C2)cn1 (stereo partly drawn) [4-((R)-1-(5-((1R,3R)-3-methoxycyclobutoxy)pyridin-2-yl)propoxy)-N-((4-((1-methylpiperidin-4-yl)oxy)piperidin-1-yl)sulfonyl)-3-(trifluoromethyl)benzamide]	< 0.1	0.1 to 0.5
CC[C@@H](Oc1ccc(C(=O)NS(=O)(=O)N2CCN(C)CC2)cc1C(F)(F)F)c1ccc(OC2CC(OC)C2)cn1 (stereo partly drawn) [4-((R)-1-(5-((1R,3R)-3-methoxycyclobutoxy)pyridin-2-yl)propoxy)-N-((4-methylpiperazin-1-yl)sulfonyl)-3-(trifluoromethyl)benzamide]	0.1 to 0.5	0.1 to 0.5
CC[C@@H](Oc1ccc(C(=O)NS(=O)(=O)c2ccc(OCC[C@H]3CCCCN3C)cc2)c(F)c1F)c1ccc(OCC2CC2)cn1 [4-((R)-1-(5-(cyclopropylmethoxy)pyridin-2-yl)propoxy)-2,3-difluoro-N-((4-(2-((R)-1-methylpiperidin-2-yl)ethoxy)phenyl)sulfonyl)benzamide]	< 0.1	0.1 to 0.5
CC[C@@H](Oc1ccc(C(=O)NS(=O)(=O)N2CC3CC(C2)N3C)c(F)c1F)c1ccc(OCC2CC2)cn1 [4-((R)-1-(5-(cyclopropylmethoxy)pyridin-2-yl)propoxy)-2,3-difluoro-N-((6-methyl-3,6-diazabicyclo[3.1.1]heptan-3-yl)sulfonyl)benzamide]	< 0.1	< 0.1
CC[C@@H](Oc1ccc(C(=O)NS(=O)(=O)N2CC3CCC(C2)N3C)c(F)c1F)c1ccc(OCC2CC2)cn1 [4-((R)-1-(5-(cyclopropylmethoxy)pyridin-2-yl)propoxy)-2,3-difluoro-N-((8-methyl-3,8-diazabicyclo[3.2.1]octan-3-yl)sulfonyl)benzamide]	< 0.1	< 0.1

Other lines, results leading:

IC50 (hACSL5 [1]) [µM]	IC50 (hACSL5 [2]) [µM]	Structure (SMILES)
< 0.1	0.1 to 0.5	CC[C@@H](Oc1ccc(C(=O)NS(=O)(=O)c2ccc(OCCN3CC[C@H](F)C3)cc2)c(F)c1F)c1ccc(OCC2CC2)cn1 [4-((R)-1-(5-(cyclopropylmethoxy)pyridin-2-yl)propoxy)-2,3-difluoro-N-((4-(2-((S)-3-fluoropyrrolidin-1-yl)ethoxy)phenyl)sulfonyl)benzamide]
< 0.1	0.1 to 0.5	CC[C@@H](Oc1ccc(C(=O)NS(=O)(=O)c2ccc(OC3CCN(C)C(C)(C)C3)cc2)c(F)c1F)c1ccc(OCC2CC2)cn1 (stereo partly drawn) [4-((R)-1-(5-(cyclopropylmethoxy)pyridin-2-yl)propoxy)-2,3-difluoro-N-((4-((1,2,2-trimethylpiperidin-4-yl)oxy)phenyl)sulfonyl)benzamide]
< 0.1	< 0.1	CC[C@@H](Oc1ccc(C(=O)NS(=O)(=O)c2ccc(OC3CCCN(C)C3)cc2)c(F)c1F)c1ccc(OCC2CC2)cn1 (stereo partly drawn) [4-((R)-1-(5-(cyclopropylmethoxy)pyridin-2-yl)propoxy)-2,3-difluoro-N-((4-((1-methylpiperidin-3-yl)oxy)phenyl)sulfonyl)benzamide]
< 0.1	> 0.5	CC[C@@H](Oc1ccc(C(=O)NS(=O)(=O)c2ccc(O[C@@H]3C[C@H]4C[C@@H]3CN4C)cc2)c(F)c1F)c1ccc(OCC2CC2)cn1 [4-((R)-1-(5-(cyclopropylmethoxy)pyridin-2-yl)propoxy)-2,3-difluoro-N-((4-(((1R,4R,5R)-2-methyl-2-azabicyclo[2.2.1]heptan-5-yl)oxy)phenyl)sulfonyl)benzamide]
< 0.1	0.1 to 0.5	CC[C@@H](Oc1ccc(C(=O)NS(=O)(=O)c2ccc(O[C@@H]3CCN(C)C3)cc2)c(F)c1F)c1ccc(OCC2CC2)cn1 [4-((R)-1-(5-(cyclopropylmethoxy)pyridin-2-yl)propoxy)-2,3-difluoro-N-((4-(((R)-1-methylpyrrolidin-3-yl)oxy)phenyl)sulfonyl)benzamide]
< 0.1	0.1 to 0.5	CC[C@@H](Oc1ccc(C(=O)NS(=O)(=O)c2ccc(O[C@H]3CCN(C)C3)cc2)c(F)c1F)c1ccc(OCC2CC2)cn1 [4-((R)-1-(5-(cyclopropylmethoxy)pyridin-2-yl)propoxy)-2,3-difluoro-N-((4-(((S)-1-methylpyrrolidin-3-yl)oxy)phenyl)sulfonyl)benzamide]
< 0.1	0.1 to 0.5	CC[C@@H](Oc1ccc(C(=O)NS(=O)(=O)N2CC3CC2CC3OCCN2CCCC2)c(F)c1F)c1ccc(OCC2CC2)cn1 (stereo partly drawn) [4-((R)-1-(5-(cyclopropylmethoxy)pyridin-2-yl)propoxy)-2,3-difluoro-N-((5-(2-(pyrrolidin-1-yl)ethoxy)-2-azabicyclo[2.2.1]heptan-2-yl)sulfonyl)benzamide]
0.1 to 0.5	0.1 to 0.5	CC[C@@H](Oc1ccc(C(=O)NS(=O)(=O)N2C[C@H]3C[C@@H]2CN3C)c(F)c1F)c1ccc(OCC2CC2)cn1 [4-((R)-1-(5-(cyclopropylmethoxy)pyridin-2-yl)propoxy)-2,3-difluoro-N-(((1R,4R)-5-methyl-2,5-diazabicyclo[2.2.1]heptan-2-yl)sulfonyl)benzamide]
0.1 to 0.5	0.1 to 0.5	CC[C@@H](Oc1ccc(C(=O)NS(=O)(=O)N2C[C@@H]3C[C@H]2CN3C)c(F)c1F)c1ccc(OCC2CC2)cn1 [4-((R)-1-(5-(cyclopropylmethoxy)pyridin-2-yl)propoxy)-2,3-difluoro-N-(((1S,4S)-5-methyl-2,5-diazabicyclo[2.2.1]heptan-2-yl)sulfonyl)benzamide]
< 0.1	< 0.1	CC[C@@H](Oc1ccc(C(=O)NS(=O)(=O)N2C[C@@H](C)N(C)[C@@H](C)C2)c(F)c1F)c1ccc(OCC2CC2)cn1 [4-((R)-1-(5-(cyclopropylmethoxy)pyridin-2-yl)propoxy)-2,3-difluoro-N-(((3S,5R)-3,4,5-trimethylpiperazin-1-yl)sulfonyl)benzamide]
